Data from patent publication US20020065326A1, “Patient oxygenation using stabilized fluorocarbon emulsions” (priority 1992, published 2002).
Where two headings read alike, the source gives them in different places. Marks after values point to notes of the source that are not given here.

What was measured:
[1] = cited from earlier work; for t½: organ retention half life, prior art / nonlipophilic fluorocarbons from literature
[2] = critical solution temperature vs hexane; prior art minor components discussed in literature; cited from earlier work
[3] = Critical solution temperature (CST) versus hexane; assay type: physicochemical
Protocol: Critical solution temperature for fluorocarbon liquids was measured in the following manner: Equivolume mixtures of the test fluorocarbon and hydrocarbon (e.g., hexane) are placed in a sealed vial and submerged in a temperature controlled water bath. Samples are cooled until two distinct phases are present. At this point, the temperature is increased slowly. The lowest temperature at which the two phases are completely miscible (i.e., a single liquid phase) is defined as the CST.
For comparison purposes, all CST temperatures used in this patent are reported versus hexane. It is often not possible, however, to measure the CST for lipophilic fluorocarbons versus hexane, since the CSTs for these substances are very low. Thus, the CST for lipophilic substances is often measured in longer chain length hydrocarbons, and the value versus hexane is determined via extrapolation of linear plots of CST vs. alkane chain length.

in vivo = assay: in vivo
From the text: Traditionally, the molecular weight region from 460-550 g/mol has been considered optimal for blood substitute applications. The lower cutoff is related to the formation of gas emboli for fluorocarbons with vapor pressures greater than 20 torr. The upper cutoff is limited to compounds with organ retention times of less than 3 weeks.
The lower limit is defined by fluorocarbons with vapor pressures greater than 20 torr which causes gas emboli, while the upper limit is defined by fluorocarbons with organ retention times of less than 3 weeks.

[4] = vs hexane, estimated from extrapolations of linear plots of CST vs. hydrocarbon chain length

Molecule	t½ [1] [days]	CSTH [2] [C]	also measured
F-dipiperidinomethane	55	42	–
FC1(F)OC(F)(F)C(F)(F)N(C2(F)C(F)(F)C(F)(F)C(F)(F)C(F)(F)C2(F)F)C1(F)F [F—N-cyclohexylmorpholine]	13	31	–
F-dipiperidinobutane	1460	72	–
FC(F)(F)C(F)(F)C(F)(F)C(F)(F)C(F)(F)C(F)(F)C(F)(F)C(F)(F)Br [F-octyl bromide, perfluorooctyl bromide]	–	–	CSTH [3, 4]: (−19)^a C; ratio of half-lives for PFOB/FDC ([1]; used to scale FIG. 6 values): 4/7; organ retention time compared with that predicted from the molecular weight (in vivo): less than be predicted from the molecular weight; half-life (in vivo; t½): 4 days
F-dipipendine	–	36	–
FC(F)(F)C(F)(F)C(F)(F)C(F)(F)C(F)(F)C(F)(F)Br [F-hexyl bromide, 1-bromotridecafluorohexane]	–	–	half-life (in vivo; in vivo): 2 days
FC1(F)OC(F)(F)C(F)(F)N(C(F)(F)C(F)(F)N2C(F)(F)C(F)(F)OC(F)(F)C2(F)F)C1(F)F [F-dimorpholinoethane]	24	38	–
FC1(F)OC(F)(F)C(F)(F)N(C(F)(F)C(F)(F)C(F)(F)N2C(F)(F)C(F)(F)OC(F)(F)C2(F)F)C1(F)F [F-dimorpholinopropane]	50	45	–
F-dipiperidinoethane	124	49	–
F-dip;peridinopropane	282	56	–
FC1(F)OC(F)(F)C(F)(F)N(C(F)(F)C(F)(F)C(F)(F)C(F)(F)C(F)(F)N2C(F)(F)C(F)(F)OC(F)(F)C2(F)F)C1(F)F [F-dimorpholinopentane]	280	60	–
FC(F)(F)C(F)(F)C(F)(F)C(F)(F)C(F)(F)C(F)(F)C(F)(F)C(F)(F)C(F)(F)C(F)(F)Br [F-decyl bromide, perfluorodecyl bromide]	–	–	critical solution temperature compared with prior art stabilizers (in words) ([3]; vs hexane, at comparable molecular weight): dramatically lower; CSTH [3, 4]: (19)^a C; organ half-life versus prescribed cutoff (in vivo): less than 3 week; organ retention time compared with that predicted from the molecular weight (in vivo): less than be predicted from the molecular weight; t½ (calculated half life in vivo in organs of the RES) (in vivo): (18) days; half-life (in vivo; t½ (calculated half life in vivo in organs of the RES)): ~18 days
FC1(F)C(F)(F)C(F)(F)C2(F)C(F)(C1(F)F)C(F)(F)C(F)(F)C1(F)C(F)(F)C(F)(F)C(F)(F)C(F)(F)C12F (stereo not drawn) [F-perhydrophenanthrene]	–	48	–
FC1(F)C(F)(F)C(F)(F)C2(F)C(F)(F)C(F)(F)C(F)(F)C(F)(F)C2(F)C1(F)F (stereo not drawn) [F-decalin, perfluorodecalin]	–	–	CSTH ([3]; critical solution temperature vs hexane, Present Study): 22 C; half-life (in vivo; t½): 7 days
F—N-methylcyclohexylpiperidine	60	40	–
